Laboratory results taken from patent US10183011B2, “Anti-depression compounds” (Board of Regents of the University of Texas System, priority 2009, dated 2019).
Entries after “also recorded” stand apart in the source; their conditions may differ.

What was measured:
G93A-SOD1 mutant mice = experiment: Accelerating rotarod test in G93A-SOD1 mice, treatment from day 80; assay type: in vivo, mouse; conditions: 20 mg/kg/day i.p. from day 80
Experimental: FIG. 35. P7C3A20 preserves performance in the accelerating rotarod test when administered at the time of disease onset to G93A-SOD1 mutant mice. Treatment of G93A-SOD1 mutant mice with 20 mg/kg/d of P7C3A20, P7C3 or Dimebon, or the appropriate vehicle, was initiated on day 80, with 20 mice per group. All compounds were administered at 20 mg/kg/day i.p. in divided doses. […] Only sibling pairs were analyzed at each time point. By week 16, there were 13 compound-vehicle pairs remaining in each group. […] All testing and analysis was performed blind to treatment group.
Having observed evidence of compound-mediated protection of spinal cord motor neurons, we next sought to determine whether motor performance might also be protected in these mice. Motor performance was monitored by the accelerating rotarod task standardly employed for evaluation of rodent models of ALS. We again initiated administration of P7C3, P7C3A20 or Dimebon on day 80, at 20 mg/kg/day, starting with no less than 20 mice per treatment group. Each animal in each group had its own sibling-matched vehicle control, and testing was conducted blind to treatment group. Rotarod training was initiated on day 50 for 2 days, and repeated weekly testing was conducted every 7 days thereafter. Each mouse was subjected to four trials of 600 seconds each, with a 20 minute recovery break between each trial. The latency time to fall was averaged across all 4 trials.
Beginning on day 50, mice were trained on the accelerating rotarod using Colombia Instruments Rotamex-5. Training consisted of mice being placed on a rotarod moving at 5 rpm for 300 seconds. Mice were trained to stay on the rotarod for the entire 300 seconds. If a mouse fell, it was placed back on the rotarod and the 300 second trial was started again. Training took place on two consecutive days. On day 52, mice ran their first full rotarod test, as described in Current Protocols for Neuroscience. The rotarod began at 4 rpm and accelerated to 40 rpm over 600 seconds, increasing by 1.25 rpm every 20 seconds. The time to fall was automatically recorded. […]

C. elegans = experiment: MPP+-induced mobility deficits in C. elegans; assay type: in vivo; conditions: for locomotion (distance traveled by the head in 10 seconds divided by body length): 10 μM with MPP+, VEH 16.2±0.49, MPP+ alone 7.2±0.68; for mobility protected, relative to normal: 10 μM, 5 mM MPP+ for 32 hours
Experimental: FIG. 32. Protective efficacy of P7C3 and P7C3A20 for MPP^+-induced mobility deficits in C. elegans. The top panels show worms with the head identified by a green dot. […] Tracking is visualized as starting with blue color and progressing to white by the completion of 10 seconds. The green dot was used to determine locomotion, defined as the distance traveled by the head of the worm in 10 seconds divided by body length. Scale bars represent 70 μM. […] When worms were treated with MPP^+, locomotion was reduced more than 50% (7.2±0.68; n=31, p<0.0001). […] P7C3A20 protected mobility to almost 80% of normal (12.8±0.81; n=34, *p<0.01), and 10 μM P7C3 protected almost 60% (m.i. of 9.6±0.72; n=28, *p<0.05). […] (7.7±1.0; n=30). Experiments were performed in triplicate and data are expressed as mean±SEM.
As a behavioral measure of toxicity, worm mobility was assessed 32 hours after MPP^+-exposure. To quantify worm locomotion, video representations were recorded for 10 seconds at 4× magnification using a Nikon Eclipse 80i microscope. Each video segment consisted of 160 frames, and the head of each worm (10-20 worms per group, repeated in triplicate) was manually tracked in each frame using Imera software. The body length of each worm was also measured by Imera software. The ratio of distance traveled to body length was used to determine the movement index, defined as locomotion, as previously established (Wang J., et al. (2009) An ALS-linked mutant SOD1 produces a locomotor defect associated with aggregation and synaptic dysfunction when expressed in neurons of Caenorhabditis elegans. PLoS Genetics e10003350). […] Co-incubation of MPP^+-exposed worms with 10 μM P7C3A20 conferred 80% preservation of locomotion, while 10 μM P7C3 protected to about 60% of normal levels.
A video-based assay was used to assess the swim speed, distance traveled and length of worms. After exposure to MPP^+ for 32 hrs, worms were washed, resuspended in M9 buffer (500 ul) and transferred to microscope slides. A 10 second movie was recorded at 4× magnification using a Nikon Eclipse 80i microscope. Each movie consisted of 160 frames and the distance traveled by the head of each worm was manually tracked in each frame using Imera software. This software was also used to measure the length of the worm body. The ratio of movement distance to body length was used as a movement index, and defined as locomotion per standard protocols.

Structure (SMILES) | accelerating rotarod performance (G93A-SOD1 mutant mice) | locomotion (distance traveled by the head in 10 seconds divided by body length) (C. elegans) | mobility protected, relative to normal (C. elegans)
Cc1ccc2c(c1)c1c(n2CCc2ccc(C)nc2)CCN(C)C1 [Dimebon, 2,3,4,5-Tetrahydro-2,8-dimethyl-5-(2-(6-methyl-3-pyridyl)ethyl)-1H-pyrido(4,3-b)indole, reference compound] | insufficiently active to preserve motor function | 7.7±1.0 | offered no protective efficacy; also recorded: did not offer any protection
COc1cccc(NCC(F)Cn2c3ccc(Br)cc3c3cc(Br)ccc32)c1 (centres unmarked) [Example P7C3A20, N-(3-(3,6-dibromo-9H-carbazol-9-yl)-2-fluoropropyl)-3-methoxyaniline] | showed significantly better performance | 12.8±0.81 | 80%
OC(CNc1ccccc1)Cn1c2ccc(Br)cc2c2cc(Br)ccc21 (centres unmarked) [Example P7C3] | insufficiently active to preserve motor function | 9.6±0.72 | 
